Experimental data published in US20230064983A1 (priority 2020, published 2023).
Where “and” joins values, the source holds several entries; their conditions need not be identical. Equal values may be shown once. Read-outs that look alike come from different tables or passages of the source.

Key:
Ba/F3-EGFR-WT cells = Ba/F3-EGFR-WT cells (Homo sapiens, UniProt P00533); test: Ba/F3 cell survival assay, wild type EGFR; assay type: cell-based; conditions: Cell Titer-Glo, 48 h, with 10 ng/mL EGF; Table 4; read-out: BA/F3 (wild type) IC50
Chain of Ba/F3-EGFR-WT cells (P00533 whole entry, looked up, stated change not applied): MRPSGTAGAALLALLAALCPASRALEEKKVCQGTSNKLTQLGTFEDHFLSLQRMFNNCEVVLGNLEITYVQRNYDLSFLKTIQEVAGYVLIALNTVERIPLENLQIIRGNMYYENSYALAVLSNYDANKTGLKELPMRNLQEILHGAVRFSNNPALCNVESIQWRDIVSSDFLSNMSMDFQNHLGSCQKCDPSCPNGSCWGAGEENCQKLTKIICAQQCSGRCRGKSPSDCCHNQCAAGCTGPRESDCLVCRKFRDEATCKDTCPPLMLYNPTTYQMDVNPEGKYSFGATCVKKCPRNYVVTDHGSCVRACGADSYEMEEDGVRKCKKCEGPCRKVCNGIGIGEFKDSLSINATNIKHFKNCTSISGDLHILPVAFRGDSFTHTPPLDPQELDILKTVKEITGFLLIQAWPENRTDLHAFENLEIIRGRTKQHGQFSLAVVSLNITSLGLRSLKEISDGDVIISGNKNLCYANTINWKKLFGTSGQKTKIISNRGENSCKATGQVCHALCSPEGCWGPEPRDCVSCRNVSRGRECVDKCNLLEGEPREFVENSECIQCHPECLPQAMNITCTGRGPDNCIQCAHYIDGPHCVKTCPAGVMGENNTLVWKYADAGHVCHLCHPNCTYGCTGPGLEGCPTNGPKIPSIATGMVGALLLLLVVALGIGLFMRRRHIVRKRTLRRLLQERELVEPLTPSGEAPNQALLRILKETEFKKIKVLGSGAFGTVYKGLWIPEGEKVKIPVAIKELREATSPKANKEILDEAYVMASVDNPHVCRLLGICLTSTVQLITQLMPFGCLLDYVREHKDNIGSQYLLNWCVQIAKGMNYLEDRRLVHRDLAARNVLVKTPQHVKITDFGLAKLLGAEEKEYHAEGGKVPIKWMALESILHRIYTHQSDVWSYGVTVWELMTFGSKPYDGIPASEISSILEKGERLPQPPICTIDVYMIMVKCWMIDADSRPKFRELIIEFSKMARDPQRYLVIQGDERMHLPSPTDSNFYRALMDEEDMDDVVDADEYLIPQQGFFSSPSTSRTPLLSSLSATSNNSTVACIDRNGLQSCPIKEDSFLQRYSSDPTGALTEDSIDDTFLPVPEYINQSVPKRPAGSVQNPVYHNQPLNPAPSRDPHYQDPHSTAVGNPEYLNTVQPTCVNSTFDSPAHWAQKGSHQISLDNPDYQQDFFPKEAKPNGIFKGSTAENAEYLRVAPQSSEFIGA

[1] = target: Ba/F3-EGFR-D770_N771insSVD cells (Homo sapiens, UniProt P00533, DUP768-770, cells depend on it); test: Ba/F3 cell survival assay, EGFR D770_N771insSVD; assay type: cell-based; conditions: Cell Titer-Glo, 48 h, without IL-3; Table 4; read-out: BA/F3 (insSVD) IC50
Chain of Ba/F3-EGFR-D770_N771insSVD cells (P00533 with tags, fused parts or gaps DUP768-770): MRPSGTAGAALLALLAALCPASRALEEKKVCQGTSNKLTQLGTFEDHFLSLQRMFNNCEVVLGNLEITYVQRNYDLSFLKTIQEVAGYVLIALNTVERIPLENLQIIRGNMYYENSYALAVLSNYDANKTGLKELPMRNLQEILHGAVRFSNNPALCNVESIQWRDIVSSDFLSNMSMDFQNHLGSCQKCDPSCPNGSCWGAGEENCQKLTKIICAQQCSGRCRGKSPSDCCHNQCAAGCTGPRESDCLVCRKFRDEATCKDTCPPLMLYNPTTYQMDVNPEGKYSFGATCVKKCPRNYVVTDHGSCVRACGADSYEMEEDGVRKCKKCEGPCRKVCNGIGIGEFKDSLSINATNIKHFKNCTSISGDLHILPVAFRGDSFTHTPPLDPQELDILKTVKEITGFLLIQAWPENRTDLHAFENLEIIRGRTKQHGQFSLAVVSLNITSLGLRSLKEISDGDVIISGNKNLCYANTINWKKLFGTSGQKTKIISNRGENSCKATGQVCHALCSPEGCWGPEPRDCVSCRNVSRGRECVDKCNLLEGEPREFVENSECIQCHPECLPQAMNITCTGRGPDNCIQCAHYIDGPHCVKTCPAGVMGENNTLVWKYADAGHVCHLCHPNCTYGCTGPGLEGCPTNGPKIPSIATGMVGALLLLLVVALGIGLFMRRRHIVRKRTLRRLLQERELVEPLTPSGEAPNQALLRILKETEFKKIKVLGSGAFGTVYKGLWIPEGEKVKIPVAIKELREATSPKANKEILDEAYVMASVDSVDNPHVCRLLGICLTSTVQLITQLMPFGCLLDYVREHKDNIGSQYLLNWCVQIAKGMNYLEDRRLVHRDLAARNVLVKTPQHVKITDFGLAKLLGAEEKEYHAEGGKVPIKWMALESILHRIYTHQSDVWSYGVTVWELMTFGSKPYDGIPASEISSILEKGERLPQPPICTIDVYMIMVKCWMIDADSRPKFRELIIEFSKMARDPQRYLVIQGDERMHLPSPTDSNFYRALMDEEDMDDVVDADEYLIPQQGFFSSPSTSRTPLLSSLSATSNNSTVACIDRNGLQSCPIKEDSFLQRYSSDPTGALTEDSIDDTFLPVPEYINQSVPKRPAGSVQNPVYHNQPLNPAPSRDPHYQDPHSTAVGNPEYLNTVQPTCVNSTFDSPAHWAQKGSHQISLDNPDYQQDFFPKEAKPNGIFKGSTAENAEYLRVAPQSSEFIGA

[2] = target: T1, EGFR with insertion SVD between D770 and N771 (mutEGFR D770_N771insSVD) (Homo sapiens, UniProt P00533, DUP768-770); test: Exon20-Mutant-EGFR(D770_N771insSVD) kinase assay (TR-FRET); assay type: biochemical; conditions: 2 mM ATP, Table 2
T1 construct: amino acids R669 to A1210; made in house; host or cells: Sf9 insect cells (baculovirus)
T1 sequence (P00533 other isoform, or with tags, fused parts or gaps DUP768-770): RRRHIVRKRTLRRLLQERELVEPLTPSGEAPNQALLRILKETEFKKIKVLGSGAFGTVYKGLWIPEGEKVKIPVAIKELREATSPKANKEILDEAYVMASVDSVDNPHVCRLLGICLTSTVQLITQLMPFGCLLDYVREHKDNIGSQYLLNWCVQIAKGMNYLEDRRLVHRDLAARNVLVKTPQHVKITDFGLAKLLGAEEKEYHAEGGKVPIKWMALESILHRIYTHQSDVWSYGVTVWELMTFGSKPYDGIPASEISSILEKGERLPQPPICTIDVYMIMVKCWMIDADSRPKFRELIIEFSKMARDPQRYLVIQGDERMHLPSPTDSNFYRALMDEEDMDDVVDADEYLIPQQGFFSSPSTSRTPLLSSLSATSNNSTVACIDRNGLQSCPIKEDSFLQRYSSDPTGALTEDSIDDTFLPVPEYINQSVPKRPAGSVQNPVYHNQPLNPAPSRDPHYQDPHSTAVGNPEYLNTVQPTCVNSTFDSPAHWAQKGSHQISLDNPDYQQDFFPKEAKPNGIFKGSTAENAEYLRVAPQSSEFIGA

Bub1 = target: T2, Bub1 (Homo sapiens, UniProt O43683); test: Bub1 high ATP kinase assay (TR-FRET); assay type: biochemical; conditions: 2 mM ATP, Table 3
T2 construct: catalytic domain of human Bub1 (amino acids 704-1085); His6 (N); made in house; host or cells: insect cells (Hi5)
T2 sequence (O43683 704-1085): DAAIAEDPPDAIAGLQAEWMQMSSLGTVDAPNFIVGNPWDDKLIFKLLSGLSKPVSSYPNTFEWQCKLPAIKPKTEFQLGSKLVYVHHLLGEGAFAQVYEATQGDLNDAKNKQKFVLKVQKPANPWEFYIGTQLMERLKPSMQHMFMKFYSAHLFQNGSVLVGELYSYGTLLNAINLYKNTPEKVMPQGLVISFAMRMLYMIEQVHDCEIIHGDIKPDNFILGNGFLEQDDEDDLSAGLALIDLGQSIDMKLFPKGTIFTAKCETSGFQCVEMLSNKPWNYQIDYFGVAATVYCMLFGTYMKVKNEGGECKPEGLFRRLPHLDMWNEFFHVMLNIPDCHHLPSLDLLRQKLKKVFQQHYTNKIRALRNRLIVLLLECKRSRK
Description: Bub1 high ATP Kinase Assay
Bub1-inhibitory activity of compounds of the present invention at a high ATP concentration was quantified employing the Bub1 TR-FRET high ATP kinase assay as described in the following paragraphs.
N-terminally His6-tagged recombinant catalytic domain of human Bub1 (amino acids 704-1085), expressed in insect cells (Hi5) and purified by Ni-NTA affinity chromatography and subsequent size exclusion chromatography, was used as enzyme. As substrate for the kinase reaction the biotinylated peptide biotin-Ahx-[…] (C-terminus in amid form) was used which can be purchased e.g. form the company Biosyntan (Berlin, Germany).
Then the kinase reaction was started by the addition of 2 μl of a solution of Bub1 in assay buffer and the resulting mixture was incubated for a reaction time of 60 min at 22° C. The concentration of Bub1 was adjusted depending of the activity of the enzyme lot and was chosen appropriate to have the assay in the linear range, a typical concentration is about 200 ng/ml. The reaction was stopped by the addition of 3 μl of a solution of TR-FRET detection reagents (0.167 μM streptavidine-XL665 [Cisbio Bioassays, Codolet, France] and 1.67 nM anti-phosho-Serine antibody [Merck Millipore, cat. #35-002] and 0.67 nM LANCE EU-W1024 labeled anti-mouse IgG antibody [Perkin-Elmer, product no. AD0077, as an alternative a Terbium-cryptate-labeled anti-mouse IgG antibody from Cisbio Bioassays can be used]) in an aqueous EDTA-solution (83.3 mM EDTA, 0.2% (w/v) bovine serum albumin in 100 mM HEPES pH 7.5).
The resulting mixture was incubated 1 h at 22° C. to allow the formation of complex between the phosphorylated biotinylated peptide and the detection reagents. Subsequently the amount of phosphorylated substrate was evaluated by measurement of the resonance energy transfer from the Eu-chelate to the streptavidine-XL. Therefore, the fluorescence emissions at 620 nm and 665 nm after excitation at 350 nm was measured in a TR-FRET reader, e.g. a Pherastar or Pherastar FS (both from BMG Labtechnologies, Offenburg, Germany) or a Viewlux (Perkin-Elmer). The ratio of the emissions at 665 nm and at 622 nm was taken as the measure for the amount of phosphorylated substrate.

[3] = Bub1 high ATP (2 mM) IC50, TR-FRET

Compound	mutEGFR (D770_N771insSVD) kinase assay IC50 [2] [µM]	IC50 (Bub1; [3])	IC50 (Bub1; read-out: Bub1 high ATP (2 mM) IC50, TR-FRET) [µM]	GI50 (Ba/F3-EGFR-WT cells) [µM]	GI50 [1] [µM]
COc1c(Cl)cccc1Nc1c(-c2ccncc2OCC2COCCO2)[nH]c2c1C(=O)NCC2C (single isomer, unassigned) [Example 35, 3-(3-chloro-2-methoxy-anilino)-2-[3-(1,4-dioxan-2-ylmethoxy)-4-pyridyl]-7-methyl-1,5,6,7-tetrahydropyrrolo[3,2-c]pyridin-4-one]	0.000272	12.4 µM		0.811	0.0541
COc1c(Cl)cccc1Nc1c(-c2ccncc2OCCC2CCCCO2)[nH]c2c1C(=O)N[C@H](C)C2 (single isomer, unassigned) [Example 88]	0.000326	0.978 µM		0.634	0.0704
COc1c(Cl)cccc1Nc1c(-c2ccncc2OCC2COCCO2)[nH]c2c1C(=O)NCC2C (single isomer, unassigned) [Example 37, 3-(3-chloro-2-methoxy-anilino)-2-[3-(1,4-dioxan-2-ylmethoxy)-4-pyridyl]-7-methyl-1,5,6,7-tetrahydropyrrolo[3,2-c]pyridin-4-one]	0.000318	2.87 µM		1.09	0.149
COc1c(Cl)cccc1Nc1c(-c2ccncc2OCC2CCCCO2)[nH]c2c1C(=O)N[C@H](C)C2 (single isomer, unassigned) [Example 29]	0.000176	2.39 µM		0.288	0.011
COc1c(Cl)cccc1Nc1c(-c2ccncc2OCC(C)(C)OC)[nH]c2c1C(=O)N[C@@H](C)C2 [Example 2, (6S)-3-(3-chloro-2-methoxyanilino)-2-[3-(2-methoxy-2-methylpropoxy)pyridin-4-yl]-6-methyl-1,5,6,7-tetrahydro-4H-pyrrolo[3,2-c]pyridin-4-one]	0.000235	0.393 µM		0.575	0.0646
COc1c(Cl)cccc1Nc1c(-c2ccncc2OCC2OCCC2(F)F)[nH]c2c1C(=O)N[C@H](C)C2 (mixture of isomers) [Example 71, (6R)-3-(3-chloro-2-methoxy-anilino)-2-{3-[(3,3-difluorotetrahydrofuran-2-yl)methoxy]-4-pyridyl}-6-methyl-1,5,6,7-tetrahydropyrrolo[3,2-c]pyridin-4-one]	0.000186	5.74 µM		0.731	0.0429
Cc1c(Cl)cccc1Nc1c(-c2ccncc2OC[C@@H]2CCCO2)[nH]c2c1C(=O)NCC2C (mixture of isomers) [Example 58, 3-(3-chloro-2-methyl-anilino)-7-methyl-2-(3-{[(2S)-oxolan-2-yl]methoxy}pyridin-4-yl)-1,5,6,7-tetrahydropyrrolo[3,2-c]pyridin-4-one]	0.000148	3.36 µM		1.25	0.0729
COCC(C)Oc1cnccc1-c1[nH]c2c(c1Nc1cccc(Cl)c1OC)C(=O)N[C@@H]1CCC[C@H]21 (single isomer, unassigned) [Example 50]	0.000393	> 20 µM		1.65	0.349
COc1c(Cl)cccc1Nc1c(-c2ccncc2OCC2(C)CCO2)[nH]c2c1C(=O)NCC2CCO (single isomer, unassigned) [Example 21, 3-(3-chloro-2-methoxyanilino)-7-(2-hydroxyethyl)-2-{3-[(2-methyloxetan-2-yl)methoxy]pyridin-4-yl}-1,5,6,7-tetrahydro-4H-pyrrolo[3,2-c]pyridin-4-one]	0.000473	> 20 µM		0.943	0.0679

More lines, main results first:

mutEGFR (D770_N771insSVD) kinase assay IC50 [2] [µM]	IC50 (Bub1; [3])	IC50 (Bub1; read-out: Bub1 high ATP (2 mM) IC50, TR-FRET) [µM]	Compound	GI50 (Ba/F3-EGFR-WT cells) [µM]	GI50 [1] [µM]
0.0004	5.42 µM		COc1c(Cl)cccc1Nc1c(-c2ccncc2OC[C@@H]2COCCN2C)[nH]c2c1C(=O)N[C@H](C)C2 [Example 93, (6R)-3-(3-chloro-2-methoxyanilino)-6-methyl-2-(3-{[(3S)-4-methylmorpholin-3-yl]methoxy}pyridin-4-yl)-1,5,6,7-tetrahydro-4H-pyrrolo[3,2-c]pyridin-4-one]	0.254	0.00867
0.000431	> 20 µM and 19.4 µM		Cc1c(Cl)cccc1Nc1c(-c2ccncc2OCC2CCCCO2)[nH]c2c1C(=O)NCC2C (single isomer, unassigned) [Example 118, 3-(3-chloro-2-methyl-anilino)-7-methyl-2-[3-(tetrahydropyran-2-ylmethoxy)-4-pyridyl]-1,5,6,7-tetrahydropyrrolo[3,2-c]pyridin-4-one]	0.938	0.0223
0.000242	> 20 µM		COc1c(Cl)cccc1Nc1c(-c2ccncc2OCC2OCCCC2(F)F)[nH]c2c1C(=O)N[C@H](C)C2 (mixture of isomers) [Example 74, (6R)-3-(3-chloro-2-methoxy-anilino)-2-{3-[(3,3-difluorotetrahydropyran-2-yl)methoxy]-4-pyridyl}-6-methyl-1,5,6,7-tetrahydropyrrolo[3,2-c]pyridin-4-one]	0.457	0.014
0.000985		> 20	COc1c(Cl)cccc1Nc1c(-c2ccncc2OCC2COC(C)(C)CO2)[nH]c2c1C(=O)NCC2C (single isomer, unassigned) [Example 96, 3-(3-chloro-2-methoxy-anilino)-2-[3-[(5,5-dimethyl-1,4-dioxan-2-yl)methoxy]-4-pyridyl]-7-methyl-1,5,6,7-tetrahydropyrrolo[3,2-c]pyridin-4-one]	3.43	0.381
0.000181	2.07 µM		C=CCOCCOc1cnccc1-c1[nH]c2c(c1Nc1cccc(Cl)c1OC)C(=O)NCC2CC=C (stereo not drawn) [Example 114, 7-allyl-2-[3-(2-allyloxyethoxy)-4-pyridyl]-3-(3-chloro-2-methoxy-anilino)-1,5,6,7-tetrahydropyrrolo[3,2-c]pyridin-4-one]	0.347	0.0287
0.00072	> 20 µM		COc1c(Cl)cccc1Nc1c(-c2ccncc2OC[C@@H]2CCCO2)[nH]c2c1C(=O)NCC2CCC(F)(F)F (single isomer, unassigned) [Example 99]	0.846	0.0459
0.00018	11.6 µM		Cc1c(Cl)cccc1Nc1c(-c2ccncc2OC[C@H]2CN(C)CCO2)[nH]c2c1C(=O)N[C@H](C)C2 [Example 106, (6R)-3-(3-chloro-2-methylanilino)-6-methyl-2-(3-{[(2R)-4-methylmorpholin-2-yl]methoxy}pyridin-4-yl)-1,5,6,7-tetrahydro-4H-pyrrolo[3,2-c]pyridin-4-one]	3.02	0.318
0.00106	0.726 µM		COc1c(Cl)cccc1Nc1c(-c2ccncc2OCCC2CCCCO2)[nH]c2c1C(=O)NC1(CCC1)C2 (stereo not drawn) [Example 128, 3-(3-chloro-2-methoxy-anilino)-2-[3-(2-tetrahydropyran-2-ylethoxy)-4-pyridyl]spiro[5,7-dihydro-1H-pyrrolo[3,2-c]pyridine-6,1′-cyclobutane]-4-one]	0.942	0.0384
0.000657	> 20 µM		COc1c(Cl)cccc1Nc1c(-c2ccncc2OCC2CCCCN2C)[nH]c2c1C(=O)N[C@H](C)C2 (single isomer, unassigned) [Example 84]	0.379	0.0161
